Entries after “also recorded” stand apart in the source; their conditions may differ.
How the values were obtained:
[1] = test system: adipocytes (3T3-L1) and myotubes (C2C12); experiment: Fatty acid oxidation screening and dose-response, cell type both or not stated; type: cell-based; settings: for concentrations that exert no effect (dose-response curves; sub-therapeutic dose): highest dose that exerted no effect on fatty acid oxidation; for independent activity in stimulating fatty acid oxidation (dose-response): compound alone; for synergy with HMB or leucine in stimulating fatty acid oxidation: compound at its no-effect concentration with HMB 5 μM or leucine 0.5 mM
[2] = in vivo; cited from earlier work
c2c12 myotubes [3] = experiment: Glucose utilization (extracellular acidification) in C2C12 myotubes; type: cell-based; settings: HMB 5 μM, leucine 0.5 mM, resveratrol 200 nM, other components at their no-effect concentration
Method: All compounds were tested for potential to independently or synergistically modulate sirtuin signaling either by direct stimulation or indirect via upstream signaling via AMPK. A key outcome of Sirt1 signaling is stimulation of PGC1-α and subsequent stimulation of mitochondrial biogenesis and fatty acid oxidation. Accordingly, fatty acid oxidation, measured as palmitate-induced oxygen consumption as described below, was utilized as a sensitive first level of screening for aerobic mitochondrial metabolism. A dose-response curve for fatty acid oxidation was established for each compound studied, and a “sub-therapeutic dose” was defined as the highest dose that exerted no effect in this system. […] Following assessment of fatty acid oxidation, Sirt1 activity, AMPK activity, mitochondrial biogenesis and glucose utilization (measured as glucose-induced extracellular acidification in the absence of fatty acids in the media) were assessed for lead combinations and appropriate controls. Glucose Utilization: In the absence of a fatty acid source and oxidative metabolism, glycolysis and subsequent lactate production results in extracellular acidification, which was also measured using a Seahorse Bioscience XF24 analyzer. […] Data for each sample were normalized to the pre-glucose injection baseline for that sample and expressed as % change from that baseline. […]

SIRT1 = molecular target: T1, SIRT1 (Homo sapiens, UniProt Q96EB6); experiment: SIRT1 activity, cell-free fluorimetric deacetylation assay; type: biochemical; settings: cell-free system
T1 construct: purchased ENZO Life Sciences International, Inc. BML-AK555
T1 sequence (Q96EB6 1-747): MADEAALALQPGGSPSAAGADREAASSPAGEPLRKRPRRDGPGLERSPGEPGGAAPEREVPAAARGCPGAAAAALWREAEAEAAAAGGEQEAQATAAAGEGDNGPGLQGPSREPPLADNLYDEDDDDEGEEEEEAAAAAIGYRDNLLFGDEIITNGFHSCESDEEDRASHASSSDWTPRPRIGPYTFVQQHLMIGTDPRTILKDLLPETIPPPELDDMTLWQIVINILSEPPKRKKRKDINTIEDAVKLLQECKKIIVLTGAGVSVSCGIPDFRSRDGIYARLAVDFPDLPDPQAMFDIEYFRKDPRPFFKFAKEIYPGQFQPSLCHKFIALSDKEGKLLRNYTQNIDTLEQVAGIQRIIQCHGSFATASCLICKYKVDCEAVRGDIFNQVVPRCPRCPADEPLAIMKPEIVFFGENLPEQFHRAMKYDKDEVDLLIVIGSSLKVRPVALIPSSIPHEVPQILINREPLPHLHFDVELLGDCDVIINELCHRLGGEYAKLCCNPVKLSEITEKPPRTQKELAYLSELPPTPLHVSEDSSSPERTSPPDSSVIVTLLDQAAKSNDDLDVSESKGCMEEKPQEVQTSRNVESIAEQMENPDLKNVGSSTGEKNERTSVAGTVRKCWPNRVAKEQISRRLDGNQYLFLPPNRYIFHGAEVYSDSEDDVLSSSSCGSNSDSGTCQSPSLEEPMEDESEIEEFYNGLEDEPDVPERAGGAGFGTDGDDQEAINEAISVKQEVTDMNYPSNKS
Method: SIRT1 activity was measured by using the SIRT1 Fluorimetric Drug Discovery Kit (BML-AK555, ENZO Life Sciences International, Inc. PA, USA). In this assay, SIRT1 activity is assessed by the degree of deacetylation of a standardized substrate containing an acetylated lysine side chain. The substrate utilized is a peptide containing amino acids 379-382 of human p53 (Arg-His-Lys-Lys[Ac]), an established target of SIRT1 activity; SIRT1 activity is directly proportional to the degree of deacetylation of Lys-382. Samples were incubated with peptide substrate (25 μM), and NAD^+ (500 μM) in a phosphate-buffered saline solution at 37° C. on a horizontal shaker for 45 minutes. The reaction was stopped with the addition of 2 mM nicotinamide and a developing solution that binds to the deacetylated lysine to form a fluorophore. Following 10 minutes incubation at 37° C., fluorescence was read in a plate-reading fluorometer at an excitation wavelength of 360 nm and an emission wavelength of 450 nm. […] A standard curve was constructed using deacetylated substrate (0-10 μM).

[4] = Insulin tolerance test in db/db mice; type: in vivo
[5] = db/db mice
[6] = Plasma insulin, glucose and HOMAIR in db/db mice; type: in vivo
Sirt3 = molecular target: T2, Sirt3 (Mus musculus, UniProt Q8R104); experiment: Sirt3 activity in mitochondrial protein of treated 3T3-L1 adipocytes; type: cell-based; settings: 4 hours, leucine 0.5 mM, HMB 5 uM, resveratrol 200 nM
T2 construct: endogenous in cells; host or cells: 3T3-L1 adipocytes (mitochondrial protein)
T2 sequence (Q8R104 1-334): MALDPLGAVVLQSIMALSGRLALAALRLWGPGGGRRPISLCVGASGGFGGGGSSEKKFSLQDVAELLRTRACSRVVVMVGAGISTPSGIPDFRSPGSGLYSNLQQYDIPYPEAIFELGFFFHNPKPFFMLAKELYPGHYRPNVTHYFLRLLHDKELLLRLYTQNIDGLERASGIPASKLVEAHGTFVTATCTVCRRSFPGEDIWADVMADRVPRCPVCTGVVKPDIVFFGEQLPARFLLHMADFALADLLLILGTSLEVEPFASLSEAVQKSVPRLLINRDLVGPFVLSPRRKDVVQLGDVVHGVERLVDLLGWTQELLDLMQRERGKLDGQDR

[7] = test system: PGC-1α, NRF-1 and UCP3 genes; experiment: Expression of mitochondrial regulatory and component genes; type: cell-based
c2c12 myotubes [8] = experiment: Fatty acid oxidation (FAO) in c2c12 myotubes, Example 1; type: cell-based; settings: preserved in presence and absence of 20 nM rapamycin
Method: We have shown that catabolic systems are also stimulated to fuel this process, resulting in increased mitochondrial biogenesis and fatty acid oxidation (FAO). To address the mechanism of this effect, we first determined its mTOR-dependence by assessing leucine stimulation of FAO in the presence and absence of 20 nM rapamycin; although rapamycin inhibited FAO in c2c12 myotubes, the degree of leucine stimulation was preserved (˜50%, p<0.03; FIG. 1).
(§1) We next investigated the role of intact leucine (0-0.5 mM) vs. its metabolites, α-ketoisocaproic acid (KIC) (0-0.5 mM) and HMB (0-50 μM). […] Both leucine and HMB increased myotube mitochondrial biogenesis (assessed fluorometrically via NAO binding) by ˜50%, (p<0.005, FIG. 3).

Adipocytes (3T3-L1) = experiment: Fatty acid oxidation (3H-palmitate) in 3T3-L1 adipocytes; type: cell-based; settings: high (25 mM) glucose, 4 hours; leucine 0.5 mM, HMB 5 uM, resveratrol 200 nM; vs. control
Method: High glucose medium reduced fatty acid oxidation by 46% (p<0.05).
Fatty acid oxidation was measured using ^3H-labeled palmitate oxidation, with the ^3H label trapped as water as a result of the fat oxidation. The ^3H was then measured via scintillation counter.

[9] = test system: myotube mitochondrial biogenesis; experiment: Myotube mitochondrial biogenesis (NAO binding), Example 1; type: cell-based; settings: assessed fluorometrically via NAO binding
Method: as §1

[10] = high dose metformin 300 mg/kg bw

O=C(O)/C=C/c1ccc(O)c(O)c1 [Caffeic acid]
concentrations that exert no effect (dose-response curves; sub-therapeutic dose) [1]: ≤ 1000 nM

Cn1c(=O)c2c(ncn2C)n(C)c1=O [Caffeine]
plasma concentration observed following caffeine consumption [2]: 1000 to 10000 nM

O=C(O[C@@H]1Cc2c(O)cc(O)cc2O[C@@H]1c1cc(O)c(O)c(O)c1)c1cc(O)c(O)c(O)c1 [EGCG, epigallocatechin gallate]
increase in glucose utilization in myotubes (extracellular acidification response to glucose) (c2c12 myotubes [3]): no independent effect | independent activity in stimulating fatty acid oxidation (dose-response) [1]: minimally active | synergy with HMB or leucine in stimulating fatty acid oxidation [1]: do not detect synergistic effects

O=c1oc2c(O)c(O)cc3c(=O)oc4c(O)c(O)cc1c4c23 [Ellagic acid]
independent activity in stimulating fatty acid oxidation (dose-response) [1]: little activity, even at high concentrations (50 μM)

CC(C)CC(=O)C(=O)O [KIC, α-ketoisocaproic acid]
SIRT1 activity (SIRT1): significantly increased SIRT1 activity

OC[C@@H](O)[C@@H](O[C@H]1O[C@H](CO)[C@@H](O)[C@H](O)[C@H]1O)[C@H](O)[C@@H](O)CO [Maltitol, reference compound]
synergy with HMB or leucine in stimulating fatty acid oxidation [1]: no synergy was noted | concentrations that exert no effect (dose-response curves; sub-therapeutic dose) [1]: ≤ 100 nM

CN(C)C(=N)N=C(N)N [Metformin]
decrease in blood glucose over the 30 minute linear portion of the insulin response curve ([4]; insulin 0.75 U/kg, standard metformin dose, or low / very low metformin blends): ~60 mg/dL | changes in blood glucose in response to the insulin challenge ([4]; low-dose or very low-dose of metformin alone): minimal changes | effects on body composition [5, 10]: no significant effects | effect on visceral fat mass ([5]; metformin at any dosage in the absence of HMB): not affected | reduction of plasma insulin ([6]; 2 weeks, high dose metformin 300 mg/kg bw (1.5 g/kg diet)): 27% | plasma insulin ([6]; 2 weeks, high dose metformin 300 mg/kg bw, control 62): 45 uU/mL | effect on plasma glucose [6, 10]: no significant effect | independent effects on any variable studied ([6]; low dose of metformin (150 mg/kg) and very low dose (50 mg/kg)): no significant independent effects

O[C@H]1[C@H](O)[C@@H](O)[C@H](O)[C@@H](O)[C@H]1O [Myo-inositol, reference compound]
synergy with HMB or leucine in stimulating fatty acid oxidation [1]: no synergy

OC[C@@H](O)[C@@H](O)[C@H](O)[C@@H](O)CO [Sorbitol, reference compound]
synergy with HMB or leucine in stimulating fatty acid oxidation [1]: no synergy

Cn1c(=O)c2[nH]cnc2n(C)c1=O [Theophylline, reference compound]
concentrations that exert no effect (dose-response curves; sub-therapeutic dose) [1]: below 1 μM

CC(C)C[C@H](N)C(=O)O [leucine]
increase in Sirt3 activity (Sirt3): no significant independent effect; also recorded: no independent effects | expression of mitochondrial regulatory (PGC-1α and NRF-1) and component (UCP3) genes [7]: stimulated expression | SIRT1 activity (SIRT1): significantly increased SIRT1 activity | leucine stimulation of FAO (c2c12 myotubes [8]): ~50% | increase in fatty acid oxidation, high glucose (Adipocytes (3T3-L1)): 27% | increase in myotube mitochondrial biogenesis [9]: ~50%

CC(C)[C@H](N)C(=O)O [valine, reference compound]
SIRT1 activity (SIRT1): no significant effect

Fucoxanthin
concentrations that exert no effect (dose-response curves; sub-therapeutic dose) [1]: ≤ 100 nM

— patent publication US8623924B2, “Compositions and methods for modulating metabolic pathways” (Nusirt Sciences, Inc., priority 2011, dated 2014)
